From patent US8242274B2, “Triazolopyridine kinase inhibitors useful for the treatment of degenerative and inflammatory diseases” (Galapagos NV, priority 2008, dated 2012)

How the values were obtained:
[1] = molecular target: T1, Recombinant human TYK2 catalytic domain (Homo sapiens, UniProt P29597); assay: TYK2 inhibition assay; format: biochemical; details: semi-quantitative score
T1 construct: Recombinant human TYK2 catalytic domain (amino acids 871-1187; catalog number 08-147); purchased Carna biosciences 08-147
T1 sequence (P29597 871-1187): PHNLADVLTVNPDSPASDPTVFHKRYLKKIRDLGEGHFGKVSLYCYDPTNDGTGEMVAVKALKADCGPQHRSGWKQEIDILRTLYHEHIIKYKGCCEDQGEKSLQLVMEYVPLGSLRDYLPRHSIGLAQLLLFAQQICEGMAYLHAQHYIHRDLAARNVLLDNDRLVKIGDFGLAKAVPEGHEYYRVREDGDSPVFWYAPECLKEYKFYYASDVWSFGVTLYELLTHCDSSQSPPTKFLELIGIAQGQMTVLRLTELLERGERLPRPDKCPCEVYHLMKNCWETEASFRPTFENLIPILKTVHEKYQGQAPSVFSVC
Description: Recombinant human TYK2 catalytic domain (amino acids 871-1187; catalog number 08-147) was purchased from Carna biosciences. 5 ng of TYK2 was incubated with 12.5 μg polyGT substrate (Sigma catalog number P0275) in kinase reaction buffer (25 mM Hepes pH 7.5, 100 mM NaCl, 0.2 mM Na3VO4, 0.1% NP-40, 0.1 μM non-radioactive ATP, 0.125 μCi 33P-gamma-ATP (GE Healthcare, catalog number AH9968) final concentrations) with or without 5 μL containing test compound or vehicle (DMSO, 1% final concentration), in a total volume of 25 μL, in a polypropylene 96-well plate (Greiner, V-bottom). After 90 min at 30° C., reactions were stopped by adding of 25 μL/well of 150 mM phosphoric acid. All of the terminated kinase reaction was transferred to prewashed (75 mM phosphoric acid) 96 well filter plates (Perkin Elmer catalog number 6005177) using a cell harvester (Perkin Elmer). Plates were washed 6 times with 300 μL per well of a 75 mM phosphoric acid solution and the bottom of the plates was sealed. 40 μL/well of Microscint-20 was added, the top of the plates was sealed and readout was performed using the Topcount (Perkin Elmer). Kinase activity was calculated by subtracting counts per minute (cpm) obtained in the presence of a positive control inhibitor (10 μM staurosporine) from cpm obtained in the presence of vehicle. The ability of a test compound to inhibit this activity was determined as: Percentage inhibition=((cpm determined for sample with test compound present−cpm determined for sample with positive control inhibitor) divided by (cpm determined in the presence of vehicle−cpm determined for sample with positive control inhibitor))*100%.
Dose dilution series were prepared for the compounds enabling the testing of dose-response effects in the TYK2 assay and the calculation of the IC50 for each compound. Each compound was routinely tested at concentration of 20 μM followed by a 1/3 serial dilution, 8 points (20 μM-6.67 μM-2.22 μM-740 nM-247 nM-82 nM-27 nM-9 nM) in a final concentration of 1% DMSO.

[2] = tested on: MAB model; assay: MAB model (collagen antibody-induced arthritis); format: in vivo, mice; details: for activity in the MAB model: 30 mg/kg
Description: The MAB model allows a rapid assessment of the modulation of an RA-like inflammatory response by therapeutics ([…]. Nature Protocols (2006) 2512-2516: Collagen antibody-induced arthritis). DBA/J mice were injected i.v. with a cocktail of mAbs directed against collagen II. One day later, compound treatment was initiated (vehicle: 10% (v/v) HPβCD). Three days later, mice received an i.p. LPS injection (50 μg/mouse), resulting in a fast onset of inflammation. Compound treatment was continued until 10 days after the mAb injection. Inflammation was read by measuring paw swelling and recording the clinical score of each paw. The cumulative clinical arthritis score of four limbs was presented to show the severity of inflammation. A scoring system is applied to each limb using a scale of 0-4, with 4 being the most severe inflammation. • 0 Symptom free • 1 Mild, but definite redness and swelling of one type of joint such as the ankle or wrist, or apparent redness and swelling limited to individual digits, regardless of the number of affected digits • 2 Moderate redness and swelling of two or more types of joints • 3 Severe redness and swelling of the entire paw including digits • 4 Maximally inflamed limb with involvement of multiple joints

[3] = molecular target: T2, hERG channels (Homo sapiens, UniProt Q12809); assay: hERG patch clamp assay, liability for QT prolongation; format: cell-based
T2 construct: expressed in transfected cells
Description: Electrodes were manufactured from GC150TF pipette glass (Harvard), resistance was between 2 and 3 MΩ.
IC50 and IC20 values were calculated for each compound tested. The fold difference between the IC20 and the unbound Cmax concentrations of the test compound obtained at relevant therapeutic doses as determined by results obtained from the rat CIA model was calculated.
For the concentration response curves, peak tail current amplitude was measured during the voltage step to −50 mV.

[4] = in vivo; details: male, Sprague-Dawley, rat, po
Description: A 7-day oral toxicity study with test compounds was performed in Sprague-Dawley male rats to assess their toxic potential and toxicokinetics, at daily doses of 100, 300 and 500 mg/kg/day, by gavage, at the constant dosage-volume of 5 mL/kg/day.
The test compounds were formulated in 30% (v/v) HPβCD in purified water. Each group included 5 principal male rats as well as 3 satellite animals for toxicokinetics. A fourth group was given 30% (v/v) HPβCD in water only, at the same frequency, dosage volume and by the same route of administration, and acted as the vehicle control group.
Compounds 37 and 176 were tested in this protocol.

T2 sequence (Q12809 whole entry): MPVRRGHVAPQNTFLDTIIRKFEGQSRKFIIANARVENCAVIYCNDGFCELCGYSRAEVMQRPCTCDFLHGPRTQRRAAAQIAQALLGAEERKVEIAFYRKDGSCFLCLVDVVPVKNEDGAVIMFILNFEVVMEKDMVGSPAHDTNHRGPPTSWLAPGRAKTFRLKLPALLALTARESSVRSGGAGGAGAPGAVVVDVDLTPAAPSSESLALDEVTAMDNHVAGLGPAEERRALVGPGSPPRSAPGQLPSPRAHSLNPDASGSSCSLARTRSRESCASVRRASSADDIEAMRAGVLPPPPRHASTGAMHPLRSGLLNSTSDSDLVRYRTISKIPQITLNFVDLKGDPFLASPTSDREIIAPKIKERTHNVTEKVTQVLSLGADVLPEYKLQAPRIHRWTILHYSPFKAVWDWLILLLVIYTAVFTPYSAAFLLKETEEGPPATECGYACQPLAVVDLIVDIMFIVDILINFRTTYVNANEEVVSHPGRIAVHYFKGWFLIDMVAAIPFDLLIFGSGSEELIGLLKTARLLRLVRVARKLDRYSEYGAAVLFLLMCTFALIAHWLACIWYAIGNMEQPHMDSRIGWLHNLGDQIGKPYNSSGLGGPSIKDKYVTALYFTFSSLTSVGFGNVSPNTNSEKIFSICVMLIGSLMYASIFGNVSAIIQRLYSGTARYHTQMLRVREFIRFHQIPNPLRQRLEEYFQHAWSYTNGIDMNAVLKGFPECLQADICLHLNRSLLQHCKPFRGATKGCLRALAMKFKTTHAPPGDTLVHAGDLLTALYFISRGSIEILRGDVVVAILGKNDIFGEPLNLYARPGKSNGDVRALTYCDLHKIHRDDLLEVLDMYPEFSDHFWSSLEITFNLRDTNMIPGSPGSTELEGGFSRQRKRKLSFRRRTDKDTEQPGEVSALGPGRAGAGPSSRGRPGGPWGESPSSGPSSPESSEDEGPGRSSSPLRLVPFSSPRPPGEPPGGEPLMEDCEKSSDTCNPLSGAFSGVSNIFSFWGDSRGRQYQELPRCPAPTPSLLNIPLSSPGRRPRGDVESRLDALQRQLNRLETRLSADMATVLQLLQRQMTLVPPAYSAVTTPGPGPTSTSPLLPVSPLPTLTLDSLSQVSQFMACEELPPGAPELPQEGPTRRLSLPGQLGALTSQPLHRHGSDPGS

Row | Compound | IC50 [1] | activity in the MAB model [2] | Fold difference between the hERG IC20 and the unbound Cmax ([3]; Dose 10 (rat CIA model)) | NOAEL at 7 day [4] | other results
1 | O=C(Nc1nc2cccc(-c3ccc(OCc4cccnc4)cc3)n2n1)C1CC1 [Compound 36, N-(5-(4-(pyridin-3-ylmethoxy)phenyl)-[1,2,4]triazolo[1,5-a]pyridin-2-yl)cyclopropanecarboxamide] | 101 to 500 nM | active | – | – | –
2 | N#Cc1ccc(COc2ccc(-c3cccc4nc(NC(=O)C5CC5)nn34)cc2)cn1 [Compound 176, N-(5-(4-((6-cyanopyridin-3-yl)methoxy)phenyl)-[1,2,4]triazolo[1,5-a]pyridin-2-yl)cyclopropanecarboxamide] | 1 to 100 nM | – | 82 | 500 mg/kg | clinical score, MAB model ([2]; 10 mg/kg p.o.): reduced the clinical score; inflammation, MAB model ([2]; 10 mg/kg p.o.): significantly reduced inflammation; clinical score, MAB model ([2]; 30 mg/kg p.o.): reduced the clinical score with statistical significance; inflammation, MAB model ([2]; 30 mg/kg p.o.): significantly reduced inflammation; Fold difference between the hERG IC20 and the unbound Cmax ([3]; Dose 3 (rat CIA model)): 137; potential for QT prolongation ([3]; compared to Compound 37): much lower potential QT prolongation issue
3 | CC(=O)Nc1ccc(COc2ccc(-c3cccc4nc(NC(=O)C5CC5)nn34)cc2)cc1 [Compound 92, N-(5-(4-(4-acetamidobenzyloxy)phenyl)-[1,2,4]triazolo[1,5-a]pyridin-2-yl)cyclopropanecarboxamide] | > 1000 nM | – | – | – | –
4 | O=C(Nc1nc2cccc(-c3ccc(OCc4ccccn4)cc3)n2n1)C1CC1 [Compound 37, N-(5-(4-(pyridin-2-ylmethoxy)phenyl)-[1,2,4]triazolo[1,5-a]pyridin-2-yl)cyclopropanecarboxamide] | 501 to 1000 nM | active | 7 | 500 mg/kg | –
5 | O=C(Nc1nc2cccc(-c3ccc(NCc4ccccc4)cc3)n2n1)C1CC1 [Compound 72, N-(5-(4-(benzylamino)phenyl)-[1,2,4]triazolo[1,5-a]pyridin-2-yl)cyclopropanecarboxamide] | > 1000 nM | – | – | – | –
